Source: patent publication US11708344B2, “Flavone derivatives for the treatment and prophylaxis of hepatitis B virus disease” (Hoffmann-La Roche Inc., priority 2018, dated 2023)

How the values were obtained:
[1] = test system: HBeAg (surrogate marker for cccDNA) in HepDES19 cells; test: Engineered HepDES19 primary screen assay (HBeAg ELISA); type: cell-based, HBV; details: Hepatitis B virus, HepDES19, 120 h, read-out: IC50 (HBeAg level, HepDES19 primary screen assay), HepDES19 cells, 5 days compound incubation, HBeAg ELISA
Method in brief: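 HepDES19 cells were induced by Tet withdrawal for 8 days, then treated with half-log compound dilutions (1% DMSO final) for 5 days at 37 °C. HBeAg was measured by ELISA as the cccDNA surrogate, viability by CCK-8, and IC50 from a 4-parameter logistic fit.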

[2] = Human microsome stability assay; type: in vitro ADME; details: human liver microsomes, 1 μM test compound, 0.5 mg/mL microsomal protein, 37° C., pH 7.4, 0-30 minutes
Description: The human microsomal stability assay is used for early assessment of metabolic stability of a test compound in human liver microsomes.
Human liver microsomes (Cat. NO.: 452117, Corning, USA; Cat. NO.: H2610, Xenotech, USA) were preincubated with test compound for 10 minutes at 37° C. in 100 mM potassium phosphate buffer, pH 7.4. The reactions were initiated by adding NADPH regenerating system. The final incubation mixtures contained 1 μM test compound, 0.5 mg/mL liver microsomal protein, 1 mM MgCl2, 1 mM NADP, 1 unit/mL isocitric dehydrogenase and 6 mM isocitric acid in 100 mM potassium phosphate buffer, pH 7.4. After incubation times of 0, 3, 6, 9, 15 and 30 minutes at 37° C., 300 μL of cold ACN (including internal standard) was added to 100 μL incubation mixture to terminate the reaction. Following precipitation and centrifugation, the amount of compound remaining in the samples was determined by LC-MS/MS. Controls of no NADPH regenerating system at zero and 30 minutes were also prepared and analyzed.

| SMILES | IC50 [1] [µM] | Clearance of Human microsome [2] [mL/min/kg] |
| --- | --- | --- |
| Cc1cc(Br)c(OCCC(=O)O)c(-c2cc(=O)c3cccc(Cl)c3o2)c1 [Example A018, 3-[2-bromo-6-(8-chloro-4-oxo-chromen-2-yl)-4-methyl-phenoxy]propanoic acid] | 3.32 | 6.15 |
| CS(=O)(=O)NC(=O)[C@H]1C[C@@H](Oc2cc(C(F)(F)F)ccc2-c2cc(=O)c3cccc(Cl)c3o2)C1 [Example B048-A, Cis-3-[2-(8-chloro-4-oxo-chromen-2-yl)-5-(trifluoromethyl)phenoxy]-N-methylsulfonyl-cyclobutanecarboxamide] | 0.632 | 6.15 |
| O=c1cc(-c2cc3c(cc2O[C@H]2C[C@H](C(=O)O)C2)CCO3)oc2c(Cl)cccc12 [Example B023, Trans-3-[[6-(8-chloro-4-oxo-chromen-2-yl)-2,3-dihydrobenzofuran-5-yl]oxy]cyclobutanecarboxylic acid] | 3.39 | 6.15 |
| O=c1cc(-c2cc(C(F)(F)F)c(Br)cc2OCCO[C@H]2C[C@@H](C(=O)O)C2)oc2c(Cl)cccc12 [Example C042-A] | 12.7 | 7.57 |
| Cc1ccc(OCCO[C@H]2C[C@H](C(=O)O)C2)c(-c2cc(=O)c3cccc(Cl)c3o2)c1 [Example C050-B, Trans-3-[2-[2-(8-chloro-4-oxo-chromen-2-yl)-4-methyl-phenoxy]ethoxy]cyclobutanecarboxylic acid] | 0.137 | 6.15 |
| Cc1cc(-c2cc(=O)c3c(O)ccc(Cl)c3o2)c(O[C@H]2C[C@H](C(=O)O)C2)cc1Br [Example B040-B, trans-3-[5-bromo-2-(8-chloro-5-hydroxy-4-oxo-chromen-2-yl)-4-methyl-phenoxy]cyclobutanecarboxylic acid] | 2.93 | 6.29 |
| O=C(O)C1CCC(OCCCOc2cc(C(F)(F)F)ccc2-c2cc(=O)c3cccc(Cl)c3o2)C1 (stereo not shown) [Example C104, 3-[3-[2-(8-chloro-4-oxo-chromen-2-yl)-5-(trifluoromethyl)phenoxy]propoxy]cyclopentanecarboxylic acid] | 4.46 | 6.15 |
| Cc1cc(-c2cc(=O)c3cccc(Cl)c3o2)c(OCC(=O)N2CCC[C@@H]2C(=O)O)cc1Br [Example A079, (2R)-1-[2-[5-bromo-2-(8-chloro-4-oxo-chromen-2-yl)-4-methyl-phenoxy]acetyl]pyrrolidine-2-carboxylic acid] | 19 | 6.6 |
| COc1cc(-c2cc(=O)c3cccc(Cl)c3o2)c(OCCO[C@H]2C[C@@H](C(=O)O)C2)cc1OCC1CC1 [Example C079, Cis-3-[2-[2-(8-chloro-4-oxo-chromen-2-yl)-5-(cyclopropylmethoxy)-4-methoxy-phenoxy]ethoxy]cyclobutanecarboxylic acid] | 5.5 | 6.15 |
| O=C(O)COCC(O)COc1cc(C(F)(F)F)ccc1-c1cc(=O)c2cccc(Cl)c2o1 (stereo not shown) [Example C115, 2-[3-[2-(8-chloro-4-oxo-chromen-2-yl)-5-(trifluoromethyl)phenoxy]-2-hydroxy-propoxy]acetic acid] | 19.2 | 6.15 |
| O=c1cc(-c2ncc(Br)cc2OCCO[C@H]2C[C@H](C(=O)O)C2)oc2c(Cl)cccc12 [Example C027] | 1.8 | 6.15 |
| CC(C)(COc1cc(OC(F)(F)F)ccc1-c1cc(=O)c2cccc(Cl)c2o1)C(=O)O [Example A061, 3-[2-(8-chloro-4-oxo-chromen-2-yl)-5-(trifluoromethoxy)phenoxy]-2,2-dimethyl-propanoic acid] | 15.9 | 8.78 |
| COc1ccc(O[C@H]2C[C@H](C(=O)O)C2)c(-c2cc(=O)c3cccc(Cl)c3o2)c1 [Example B021, Trans-3-[2-(8-chloro-4-oxo-chromen-2-yl)-4-methoxy-phenoxy]cyclobutanecarboxylic acid] | 3.06 | 6.15 |
| CC(C)(Oc1cc(Br)ccc1-c1cc(=O)c2cccc(Cl)c2o1)C(=O)O [Example A070, 2-[5-bromo-2-(8-chloro-4-oxo-chromen-2-yl)phenoxy]-2-methyl-propanoic acid] | 0.63 | 6.15 |
| O=C(COCCOc1cc(C(F)(F)F)ccc1-c1cc(=O)c2cccc(Cl)c2o1)NS(=O)(=O)C1CC1 [Example C118, 2-[2-[2-(8-chloro-4-oxo-chromen-2-yl)-5-(trifluoromethyl)phenoxy]ethoxy]-N-cyclopropylsulfonyl-acetamide] | 14.7 | 6.15 |
| Cc1cc(-c2cc(=O)c3cccc(Cl)c3o2)c(OCC(=O)N2CC[C@@H](O)C2)cc1Br [Example A089, 2-[4-bromo-2-[2-[(3R)-3-hydroxypyrrolidin-1-yl]-2-oxo-ethoxy]-5-methyl-phenyl]-8-chloro-chromen-4-one] | 11.9 | 6.69 |
| Cc1ccc(OCCO[C@H]2C[C@@H](C(=O)O)C2)c(-c2cc(=O)c3cccc(Cl)c3o2)c1 [Example C050-A, Cis-3-[2-[2-(8-chloro-4-oxo-chromen-2-yl)-4-methyl-phenoxy]ethoxy]cyclobutanecarboxylic acid] | 15.6 | 6.15 |
| COc1cc(OCC(=O)NS(=O)(=O)C2CC2)c(-c2cc(=O)c3cccc(Cl)c3o2)cc1OC [Example A091, 2-[2-(8-chloro-4-oxo-chromen-2-yl)-4,5-dimethoxy-phenoxy]-N-cyclopropylsulfonyl-acetamide] | 0.888 | 6.15 |
| Cc1cc(-c2cc(=O)c3cccc(Cl)c3o2)c(OCC(=O)N2CC[C@H](O)C2)cc1Br [Example A088, 2-[4-bromo-2-[2-[(3S)-3-hydroxypyrrolidin-1-yl]-2-oxo-ethoxy]-5-methyl-phenyl]-8-chloro-chromen-4-one] | 1.11 | 7.09 |
| O=C(O)C1CCC(OCCCOc2cc(Br)ccc2-c2cc(=O)c3cccc(Cl)c3o2)C1 (stereo not shown) [Example C105, 3-[3-[5-bromo-2-(8-chloro-4-oxo-chromen-2-yl)phenoxy]propoxy]cyclopentanecarboxylic acid] | 1.74 | 6.15 |
| O=c1cc(-c2ccc(OC(F)(F)F)cc2OCCO[C@H]2C[C@@H](C(=O)O)C2)oc2c(Cl)cccc12 [Example C052-A, Cis-3-[2-[2-(8-chloro-4-oxo-chromen-2-yl)-5-(trifluoromethoxy)phenoxy]ethoxy]cyclobutanecarboxylic acid] | 5.99 | 9.08 |
| O=c1cc(-c2cccc(F)c2OCCO[C@H]2C[C@@H](C(=O)O)C2)oc2c(Cl)cccc12 [Example C037-A, Cis-3-[2-[2-(8-chloro-4-oxo-chromen-2-yl)-6-fluoro-phenoxy]ethoxy]cyclobutanecarboxylic acid] | 0.0975 | 6.15 |
| NS(=O)(=O)CCCOc1cc(C(F)(F)F)ccc1-c1cc(=O)c2cccc(Cl)c2o1 [Example B072, 3-[2-(8-chloro-4-oxo-chromen-2-yl)-5-(trifluoromethyl)phenoxy]propane-1-sulfonamide] | 0.95 | 8.89 |
